# In PMC6273767, “Comparative Studies of Interactions between Fluorodihydroquinazolin Derivatives and Human Serum Albumin with Fluorescence Spectroscopy” (Molecules, 2016):
# Biological target: T1, human serum albumin (HSA) (Homo sapiens, UniProt P02768)
# T1 construct: gene ALB; mature serum albumin, 585 residues (signal and propeptide removed)
# Assay: tryptophan fluorescence quenching, modified Stern-Volmer
# Assay type: binding
# Conditions: 298 K, pH 7.4, 0.1 M Tris, 0.1 M NaCl, 1 µM HSA, excitation 280 nm; mainly site II (subdomain IIIA)
# Description: tryptophan fluorescence quenching, modified Stern-Volmer on human serum albumin (HSA)
# T1 sequence (P02768 25-609): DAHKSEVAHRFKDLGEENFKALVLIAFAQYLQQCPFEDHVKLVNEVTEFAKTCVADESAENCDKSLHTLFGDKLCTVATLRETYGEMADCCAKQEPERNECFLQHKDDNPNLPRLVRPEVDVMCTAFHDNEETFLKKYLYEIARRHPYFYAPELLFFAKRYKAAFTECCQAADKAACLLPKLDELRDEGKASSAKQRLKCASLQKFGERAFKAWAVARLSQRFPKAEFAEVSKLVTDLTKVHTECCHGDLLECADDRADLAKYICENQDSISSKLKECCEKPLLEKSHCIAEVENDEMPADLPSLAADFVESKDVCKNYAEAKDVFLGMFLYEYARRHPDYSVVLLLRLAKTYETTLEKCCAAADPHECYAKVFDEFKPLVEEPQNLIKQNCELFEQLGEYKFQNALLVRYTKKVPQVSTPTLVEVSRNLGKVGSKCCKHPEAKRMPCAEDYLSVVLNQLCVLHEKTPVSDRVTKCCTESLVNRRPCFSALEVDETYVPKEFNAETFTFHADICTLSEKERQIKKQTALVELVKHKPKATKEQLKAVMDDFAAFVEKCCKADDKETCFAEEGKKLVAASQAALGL
row,Ka (×10^4 M^-1),SMILES
1,2.16 × 10^4 M^−1,"CC(C)(C)CC(=O)N1c2ccc(Cl)cc2C(=O)N(N=Cc2ccccc2)C1c1ccccc1 (stereo not shown) [3a, 3-(Benzylideneamino)-6-chloro-1-(3,3-dimethylbutanoyl)-2-phenyl-2,3-dihydroquinazolin-4(1H)-one]"
2,2.33 × 10^4 M^−1,"CC(C)(C)CC(=O)N1c2ccc(Cl)cc2C(=O)N(N=Cc2ccc(F)cc2)C1c1ccccc1 (stereo not shown) [3b, 6-Chloro-1-(3,3-dimethylbutanoyl)-3-(4-fluorobenzylideneamino)-2-phenyl-2,3-dihydroquinazolin-4(1H)-one]"
3,2.73 × 10^4 M^−1,"CC(C)(C)CC(=O)N1c2ccc(Cl)cc2C(=O)N(N=Cc2cccc(F)c2)C1c1ccccc1 (stereo not shown) [3c, 6-Chloro-1-(3,3-dimethylbutanoyl)-3-(3-fluorobenzylideneamino)-2-phenyl-2,3-dihydroquinazolin-4(1H)-one]"
4,2.46 × 10^4 M^−1,"CC(C)(C)CC(=O)N1c2ccc(Cl)cc2C(=O)N(N=Cc2ccccc2F)C1c1ccccc1 (stereo not shown) [3d, 6-Chloro-1-(3,3-dimethylbutanoyl)-3-(2-fluorobenzylideneamino)-2-phenyl-2,3-dihydroquinazolin-4(1H)-one]"
